These results are taken from ChEMBL document CHEMBL5715954, “Silencing c-Myc translation as a therapeutic strategy through targeting PI3Kδ and CK1ε in hematological malignancies” (Blood, 2017).

Set-up in all cases: scale not given: the % may be the effect or the level left
Test [1] concerns the target Cyclin-dependent kinase 4/cyclin D1 (Homo sapiens) (UniProt P11802+P24385). Nature of the test: Inhibition of human CDK4/cyclin D1 assessed as enzyme activity at 1 uM using RB Protein as substrate preincubated for 20 mins followed by [gamma-33P]-ATP addition and measured after 120 mins by radiometric Hot-SpotSM Kinase assay relative to control. The test is classed as protein-complex assay.

For test [2], the target named is T1, Tyrosine-protein kinase receptor TYRO3 (Homo sapiens) (UniProt Q06418).
T1 sequence (whole entry): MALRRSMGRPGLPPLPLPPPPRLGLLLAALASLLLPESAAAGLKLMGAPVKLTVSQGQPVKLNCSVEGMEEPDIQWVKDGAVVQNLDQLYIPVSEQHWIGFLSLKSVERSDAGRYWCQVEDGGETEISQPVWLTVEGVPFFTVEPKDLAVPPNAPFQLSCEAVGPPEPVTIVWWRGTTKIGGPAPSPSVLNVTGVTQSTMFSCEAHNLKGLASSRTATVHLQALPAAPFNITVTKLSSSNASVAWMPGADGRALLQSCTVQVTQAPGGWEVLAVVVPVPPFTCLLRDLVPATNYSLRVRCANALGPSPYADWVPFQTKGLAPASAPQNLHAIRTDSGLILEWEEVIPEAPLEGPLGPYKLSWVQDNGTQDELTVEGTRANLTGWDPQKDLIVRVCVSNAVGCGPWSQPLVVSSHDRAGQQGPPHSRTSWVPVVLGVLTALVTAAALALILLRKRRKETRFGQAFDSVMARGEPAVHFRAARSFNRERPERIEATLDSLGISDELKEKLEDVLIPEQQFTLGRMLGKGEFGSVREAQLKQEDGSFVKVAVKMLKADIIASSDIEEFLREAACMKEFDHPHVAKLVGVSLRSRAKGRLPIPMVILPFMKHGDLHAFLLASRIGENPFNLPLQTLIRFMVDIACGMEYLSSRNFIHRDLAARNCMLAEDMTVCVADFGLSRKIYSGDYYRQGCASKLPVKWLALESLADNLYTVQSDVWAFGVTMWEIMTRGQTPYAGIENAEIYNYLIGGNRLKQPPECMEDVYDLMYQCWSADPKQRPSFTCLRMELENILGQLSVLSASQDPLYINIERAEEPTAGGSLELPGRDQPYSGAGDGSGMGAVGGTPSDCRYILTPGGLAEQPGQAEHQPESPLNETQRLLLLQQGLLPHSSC
Nature of the test: Inhibition of human TYRO3 assessed as enzyme activity at 1 uM using poly[Glu:Tyr] (4:1) as substrate preincubated for 20 mins followed by [gamma-33P]-ATP addition and measured after 120 mins by radiometric Hot-SpotSM Kinase assay relative to control.

For test [3], the target named is Serine/threonine-protein kinase tousled-like 2 (Homo sapiens) (UniProt Q86UE8). The experiment in a line: Inhibition of human TLK2 assessed as enzyme activity at 1 uM using casein as substrate preincubated for 20 mins followed by [gamma-33P]-ATP addition and measured after 120 mins by radiometric Hot-SpotSM Kinase assay relative to control.
Test [4] has as its target T2, NUAK family SNF1-like kinase 2 (Homo sapiens) (UniProt Q9H093).
T2 sequence (whole entry): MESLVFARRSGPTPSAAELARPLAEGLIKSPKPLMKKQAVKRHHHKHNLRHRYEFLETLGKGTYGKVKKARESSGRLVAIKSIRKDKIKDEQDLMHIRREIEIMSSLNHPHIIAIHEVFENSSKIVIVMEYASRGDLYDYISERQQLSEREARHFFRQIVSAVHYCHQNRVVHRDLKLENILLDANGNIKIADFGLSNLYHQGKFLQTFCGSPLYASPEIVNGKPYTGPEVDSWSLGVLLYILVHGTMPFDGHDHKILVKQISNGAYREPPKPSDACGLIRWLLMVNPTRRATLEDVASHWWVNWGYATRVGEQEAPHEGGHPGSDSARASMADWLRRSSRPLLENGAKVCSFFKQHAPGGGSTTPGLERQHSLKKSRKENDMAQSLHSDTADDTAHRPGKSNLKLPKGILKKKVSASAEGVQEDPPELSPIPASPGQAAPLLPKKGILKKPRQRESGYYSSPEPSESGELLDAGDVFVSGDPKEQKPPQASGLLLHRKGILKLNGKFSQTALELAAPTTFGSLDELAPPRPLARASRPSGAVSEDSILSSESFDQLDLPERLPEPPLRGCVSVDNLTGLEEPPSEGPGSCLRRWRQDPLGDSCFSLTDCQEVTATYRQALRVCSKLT
The experiment in a line: Inhibition of human SNARK assessed as enzyme activity at 1 uM using KKKVSRSGLYRSPSMPENLNRPR as substrate preincubated for 20 mins followed by [gamma-33P]-ATP addition and measured after 120 mins by radiometric Hot-SpotSM Kinase assay relative to control.

Test [5] concerns the target T3, Activin receptor type-1B (Homo sapiens) (UniProt P36896).
T3 sequence (whole entry): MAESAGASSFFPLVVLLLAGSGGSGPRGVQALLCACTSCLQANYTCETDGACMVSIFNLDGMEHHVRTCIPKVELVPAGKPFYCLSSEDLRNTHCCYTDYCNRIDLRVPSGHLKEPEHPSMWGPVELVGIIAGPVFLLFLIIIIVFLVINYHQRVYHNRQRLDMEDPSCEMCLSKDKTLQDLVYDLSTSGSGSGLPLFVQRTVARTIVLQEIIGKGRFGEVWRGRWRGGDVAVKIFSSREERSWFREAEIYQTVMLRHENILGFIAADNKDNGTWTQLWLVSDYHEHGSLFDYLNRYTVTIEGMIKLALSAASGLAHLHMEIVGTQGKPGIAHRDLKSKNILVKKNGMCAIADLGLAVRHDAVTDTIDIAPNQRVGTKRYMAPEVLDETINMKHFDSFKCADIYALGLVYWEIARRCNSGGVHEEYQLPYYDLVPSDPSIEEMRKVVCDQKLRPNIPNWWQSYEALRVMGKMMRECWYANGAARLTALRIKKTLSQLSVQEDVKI
The experiment in a line: Inhibition of human ALK4 assessed as enzyme activity at 1 uM using casein as substrate preincubated for 20 mins followed by [gamma-33P]-ATP addition and measured after 120 mins by radiometric Hot-SpotSM Kinase assay relative to control.

For test [6], the target named is CDK6/cyclin D3 (Homo sapiens) (UniProt P30281+Q00534). Nature of the test: Inhibition of human CDK6/cyclin D3 assessed as enzyme activity at 1 uM using RB Protein as substrate preincubated for 20 mins followed by [gamma-33P]-ATP addition and measured after 120 mins by radiometric Hot-SpotSM Kinase assay relative to control. It counts as protein-complex assay.

Chain of Serine/threonine-protein kinase tousled-like 2 (Homo sapiens) (Q86UE8 whole entry, looked up): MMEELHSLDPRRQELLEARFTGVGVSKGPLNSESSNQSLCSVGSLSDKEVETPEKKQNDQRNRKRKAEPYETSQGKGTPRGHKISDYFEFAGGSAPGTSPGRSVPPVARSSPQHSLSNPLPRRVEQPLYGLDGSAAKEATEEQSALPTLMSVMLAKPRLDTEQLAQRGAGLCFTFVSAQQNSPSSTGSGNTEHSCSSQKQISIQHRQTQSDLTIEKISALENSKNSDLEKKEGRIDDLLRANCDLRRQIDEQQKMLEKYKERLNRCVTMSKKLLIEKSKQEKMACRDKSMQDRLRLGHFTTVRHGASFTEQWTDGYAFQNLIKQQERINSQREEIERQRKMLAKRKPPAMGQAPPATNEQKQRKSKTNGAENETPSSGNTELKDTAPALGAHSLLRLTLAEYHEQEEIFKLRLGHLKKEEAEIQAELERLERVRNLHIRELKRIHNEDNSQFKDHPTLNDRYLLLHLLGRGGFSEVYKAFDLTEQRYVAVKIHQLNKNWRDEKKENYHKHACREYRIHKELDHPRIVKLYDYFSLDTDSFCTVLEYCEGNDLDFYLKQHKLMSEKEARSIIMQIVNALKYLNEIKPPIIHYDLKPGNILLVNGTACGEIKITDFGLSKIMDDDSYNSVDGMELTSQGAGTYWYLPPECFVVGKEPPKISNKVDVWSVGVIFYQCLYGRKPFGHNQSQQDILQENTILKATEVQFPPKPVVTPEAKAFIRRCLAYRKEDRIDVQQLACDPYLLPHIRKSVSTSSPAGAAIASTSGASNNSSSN

For the compound `C[C@H](Nc1ncnc2nc[nH]c12)c1cc2cccc(Cl)c2c(=O)n1-c1ccccc1`, the Activity in test [1] was determined as 110%; in test [2], 98.5%; in test [3] it was 97.3%; in test [4], 93.2%; in test [5], 101%; in test [6], 96.5%.
Take `CC[C@H](Nc1ncnc2[nH]cnc12)c1nc2cccc(F)c2c(=O)n1-c1ccccc1`: the Activity in test [1] stood at 108%; in test [2], 98.9%; in test [3] it was 94%; in test [4], 93.2%; in test [5], 101%; in test [6], 102%.
With `CC(C)Oc1ccc(-c2nn([C@@H](C)c3oc4ccc(F)cc4c(=O)c3-c3cccc(F)c3)c3ncnc(N)c23)cc1F` [UMBRALISIB], the Activity in test [1] is 104%; in test [2] it was 96.8%; in test [3], 96.3%; in test [4] it was 95.9%; in test [5] it was 106%; in test [6] it was 97.8%.
